Assay results taken from patent US8110681B2, “Compounds for the treatment of spinal muscular atrophy and other uses” (The United States of America as represented by the …, priority 2006, dated 2012).
Read-outs that look alike come from different tables or passages of the source.

Tested on: SMN2-linked luciferase-reporter gene construct
Assay: SMN splice reporter assay (SMN2-linked luciferase reporter, Example 10)
Assay type: cell-based
Details: for maximal fold induction: read-out: SMN Splice Reporter Assay (Example 10) Avg MaxFold Increase
Text: Cervical carcinoma cell lines were transformed with a SMN2-linked luciferase-reporter gene construct. The reporter is designed to detect shifts in the alternative splicing of SMN2 sequences. In particular, the reporter is constructed as a fusion of the alternatively spliced sequences of the SMN2 gene and the luciferase gene. Luciferase sequences are in the correct translational reading frame only when the SMN2 sequences are spliced according to the normal SMN1 mechanism (e.g., splicing to include exon 7), which allows for translation of the stable SMN protein. Compounds were tested in the assay by administering the compound to the cell line and detecting an increase in the luciferase activity. The assay is described in greater detail in Zhang et al., Gene Ther., 8, 1532-8 (2001). Compounds were administered as described in Lunn et al, Chem. & Biol, 11, 1489-1493 (2004).
The results are reported as a fold-increase over a baseline reading of transformed cells without any test compound.

[1] = SMN2-linked luciferase reporter, average
[2] = maximum fold increase of reporter signal, average
[3] = SMN2-linked luciferase reporter, average maximum fold increase

CC(C(=O)Nc1ccccc1)c1ccc(N2Cc3ccccc3C2=O)cc1 (stereo not shown) [ALB-112075]
EC50 [1]: 578 nM
maximal fold induction [2]: 1.25

CC(C(=O)O)c1ccc(N2Cc3cc(OCC(F)(F)F)ccc3C2=O)cc1 (stereo not shown) [ALB-113964]
maximal fold induction [2]: 1.08

CC(C)(C)OC(=O)C1(c2ccc(N3Cc4ccccc4C3=O)cc2)CCCC1 [ALB-112362]
maximal fold induction [2]: 1.05

CC(C(=O)OCc1ccccc1)c1ccc(N2Cc3ccccc3C2=O)cc1 (stereo not shown) [ALB-111733]
EC50 [1]: 528 nM
maximal fold induction [2]: 1.56

CC(C(=O)O)c1ccc(N2Cc3c(Cl)cccc3C2=O)cc1 (stereo not shown) [ALB-111763]
EC50 [1]: 13900 nM
maximal fold induction [2]: 1.17

COCc1ccc2c(c1)C(=O)N(c1ccc(C(C)CO)cc1)C2 (stereo not shown) [ALB-114941]
EC50 [1]: 299 nM
maximal fold induction [2]: 1.35

CC(C(=O)O)c1ccc(N2Cc3ccc(OC4CCCC4)cc3C2=O)cc1 (stereo not shown) [ALB-113493]
EC50 [1]: 81 nM
maximal fold induction [2]: 1.89

CC(C(=O)O)c1ccc(N2Cc3ccccc3C2=O)cc1-c1ccc(Cl)c(Cl)c1 (stereo not shown) [ALB-111999]
maximal fold induction [2]: 1.05

CC(C(=O)O)c1ccc(N2Cc3cccc(-c4ccccc4)c3C2=O)cc1 (stereo not shown) [ALB-112155]
EC50 [1]: 26300 nM
maximal fold induction [2]: 1.19

CCCCCOc1ccc2c(c1)CN(c1ccc(C(C)C(=O)O)cc1)C2=O (stereo not shown) [ALB-113759]
EC50 [1]: 510 nM
maximal fold induction [2]: 1.22

CC(C)c1ccc(N2Cc3ccc(N(C)C(=O)N(C)C)cc3C2=O)cc1 [ALB-118901]
EC50 [1]: 493 nM
maximal fold induction [3]: 1.31

COc1ccc(-c2ccc3c(c2)C(=O)N(c2ccc(C(C)C)cc2)C3)cc1 [ALB-118038]
maximal fold induction [2]: 1.08

CC(=O)c1ccc2c(c1)C(=O)N(c1ccc(C(C)C(=O)O)cc1)C2 (stereo not shown) [ALB-113387]
EC50 [1]: 50 nM
maximal fold induction [2]: 1.18

Cc1cc(N2Cc3ccccc3C2=O)ccc1C(C)C(=O)OC(C)(C)C (stereo not shown) [ALB-112438]
EC50 [1]: 2710 nM
maximal fold induction [2]: 1.42

Cc1ccc(-c2cccc3c2CN(c2ccc(C(C)C(=O)OC(C)(C)C)cc2)C3=O)cc1 (stereo not shown) [ALB-112188]
maximal fold induction [2]: 1.08

COc1cc2c(cc1OC)C(=O)N(c1ccc(C(C)C(=O)O)cc1)C2 (stereo not shown) [ALB-114437]
maximal fold induction [2]: 1.2

Cc1cc(C(C)C(=O)OC(C)(C)C)ccc1N1Cc2ccccc2C1=O (stereo not shown) [ALB-112483]
maximal fold induction [2]: 1.03

CC(C(=O)O)c1ccc(N2Cc3cc(Br)ccc3C2=O)cc1 (stereo not shown) [ALB-111855]
EC50 [1]: 553 nM
maximal fold induction [2]: 1.35

CC(C)c1ccc(N2Cc3ccc(NC(=O)Nc4ccccc4)cc3C2=O)cc1 [ALB-118416]
maximal fold induction [3]: 1.17

CC(C)c1ccc(N2Cc3cccc(OC(F)F)c3C2=O)cc1 [ALB-118279]
EC50 [1]: 220 nM
maximal fold induction [3]: 1.55

CC(C(=O)O)c1ccc(N2Cc3ccccc3C2=O)cc1-c1ccc(Cl)cc1 (stereo not shown) [ALB-112329]
maximal fold induction [2]: 1.09

COc1ccc(-c2ccc3c(c2)C(=O)N(c2ccc(C(C)C(=O)OC(C)(C)C)cc2)C3)cc1 (stereo not shown) [ALB-112450]
maximal fold induction [2]: 1.09

CC(C(=O)OC(C)(C)C)c1cccc(N2Cc3ccccc3C2=O)c1 (stereo not shown) [ALB-112361]
maximal fold induction [2]: 1.09

COc1ccc(-c2cccc3c2CN(c2ccc(C(C)C(=O)O)cc2)C3=O)cc1 (stereo not shown) [ALB-112222]
maximal fold induction [2]: 1.42

CC(C(=O)OC(C)(C)C)c1ccc(N2Cc3cc(C#N)ccc3C2=O)cc1 (stereo not shown) [ALB-112444]
EC50 [1]: 307 nM
maximal fold induction [2]: 1.04

CC(C(=O)O)c1ccc(N2Cc3ccc(OCc4ccccc4)cc3C2=O)cc1 (stereo not shown) [ALB-115326]
maximal fold induction [2]: 1.24

Cc1cccc2c1CN(c1ccc(C(C)C(=O)O)cc1)C2=O (stereo not shown) [ALB-112555]
EC50 [1]: 5900 nM
maximal fold induction [2]: 1.64

CC(C(=O)O)c1ccc(N2Cc3ccc(F)cc3C2=O)cc1 (stereo not shown) [ALB-113836]
EC50 [1]: 544 nM
maximal fold induction [2]: 1.78

CC(C(=O)OC(C)(C)C)c1ccc(N2Cc3ccc(NS(=O)(=O)c4ccccc4)cc3C2=O)cc1 (stereo not shown) [ALB-112072]
maximal fold induction [3]: 1.07

CC(C(=O)OC(C)(C)C)c1ccc(N2Cc3ncccc3C2=O)cc1 (stereo not shown) [ALB-112087]
maximal fold induction [2]: 1.05

CC(C)COc1ccc2c(c1)C(=O)N(c1ccc(C(C)C(=O)O)cc1)C2 (stereo not shown) [ALB-115325]
EC50 [1]: 74 nM
maximal fold induction [2]: 1.57

CC(C(=O)OC(C)(C)C)c1ccc(N2Cc3cc(-c4cccs4)ccc3C2=O)cc1 (stereo not shown) [ALB-111992]
maximal fold induction [2]: 1.01

CCOc1ccc2c(c1)C(=O)N(c1ccc(C(C)C(=O)O)cc1)C2 (stereo not shown) [ALB-113102]
EC50 [1]: 62 nM
maximal fold induction [2]: 1.83

COc1cc2c(cc1F)CN(c1ccc(C(C)C)cc1)C2=O [ALB-118413]
EC50 [1]: 119 nM
maximal fold induction [2]: 1.39

CC(C(=O)OC(C)(C)C)c1ccc(N2Cc3ccccc3C2=O)cc1Br (stereo not shown) [ALB-111882]
EC50 [1]: 2830 nM
maximal fold induction [2]: 1.24

CC(C(=O)OC(C)(C)C)c1ccc(N2Cc3ccccc3C2=O)cc1-c1ccc(Cl)cc1 (stereo not shown) [ALB-112328]
maximal fold induction [2]: 1.04

CCc1ccc(N2Cc3cc4c(cc3C2=O)OCCO4)cc1 [ALB-116240]
EC50 [1]: 33 nM
maximal fold induction [3]: 1.62

CC(C(=O)NC#N)c1ccc(N2Cc3ccccc3C2=O)cc1 (stereo not shown) [ALB-111746]
maximal fold induction [2]: 1.11

CC(C)c1ccc(N2Cc3ccc(N4CCCC4)cc3C2=O)cc1 [ALB-115715]
maximal fold induction [2]: 1.06

Cc1ccc(-c2cc(N3Cc4ccccc4C3=O)ccc2C(C)C(=O)O)cc1 (stereo not shown) [ALB-112003]
EC50 [1]: 2060 nM
maximal fold induction [2]: 1.09

Cc1ccc(-c2cc(N3Cc4ccccc4C3=O)ccc2C(C)C(=O)OC(C)(C)C)cc1 (stereo not shown) [ALB-112000]
maximal fold induction [2]: 1.06

CC(C(=O)OC(C)(C)C)c1ccc(N2Cc3cc(-c4cncnc4)ccc3C2=O)cc1 (stereo not shown) [ALB-111991]
maximal fold induction [2]: 1.09

CC(C(=O)O)c1ccc(N2Cc3cc(N)ccc3C2=O)cc1 (stereo not shown) [ALB-111950a]
maximal fold induction [2]: 1.07

CC(C)c1ccc(N2Cc3cc(N)ccc3C2=O)cc1 [ALB-117747]
EC50 [1]: 34 nM
maximal fold induction [2]: 1.49

COc1cc2c(cc1O)CN(c1ccc(C(C)C)cc1)C2=O [ALB-118035]
maximal fold induction [3]: 1.13

O=C1c2ccccc2CN1c1ccc(C2(C(=O)O)CC2)cc1 [ALB-112434]
maximal fold induction [2]: 1.28

CC(C(=O)O)c1ccc(N2Cc3cccc([N+](=O)[O-])c3C2=O)cc1 (stereo not shown) [ALB-111995]
EC50 [1]: 12000 nM
maximal fold induction [2]: 1.25

CCc1cccc2c1C(=O)N(c1ccc(C(C)C(=O)O)cc1)C2 (stereo not shown) [ALB-113395]
EC50 [1]: 1840 nM
maximal fold induction [2]: 1.49

CCc1ccc2c(c1)CN(c1ccc(C(C)C(=O)O)cc1)C2=O (stereo not shown) [ALB-113490]
EC50 [1]: 218 nM
maximal fold induction [2]: 1.48

CC(C(=O)OC(C)(C)C)c1ccc(N2Cc3ccc(Cl)cc3C2=O)cc1 (stereo not shown) [ALB-111740]
EC50 [1]: 2020 nM
maximal fold induction [2]: 1.49

CC(C(=O)OC(C)(C)C)c1ccc(N2Cc3cc(-c4cccnc4)ccc3C2=O)cc1 (stereo not shown) [ALB-111884]
maximal fold induction [2]: 1.03

CC(C(=O)O)c1ccc(N2Cc3cc(N(C)C)ccc3C2=O)cc1 (stereo not shown) [ALB-113646]
maximal fold induction [2]: 1.05

CCCCCc1ccc2c(c1)C(=O)N(c1ccc(C(C)C(=O)O)cc1)C2 (stereo not shown) [ALB-113388]
EC50 [1]: 1120 nM
maximal fold induction [2]: 1.77

CC(C(=O)O)c1ccc(N2Cc3ccc(CCC(F)(F)F)cc3C2=O)cc1 (stereo not shown) [ALB-115588]
EC50 [1]: 356 nM
maximal fold induction [2]: 1.7

CC(C(=O)OC(C)(C)C)c1ccc(N2Cc3cc(N)ccc3C2=O)cc1 (stereo not shown) [ALB-111949]
EC50 [1]: 5220 nM
maximal fold induction [2]: 1.29

COc1ccc(-c2cccc3c2C(=O)N(c2ccc(C(C)C(=O)O)cc2)C3)cc1 (stereo not shown) [ALB-112156]
maximal fold induction [2]: 1.27

CCc1ccc2c(c1)C(=O)N(c1ccc(C(C)C)cc1)C2 [ALB-115713]
EC50 [1]: 61 nM
maximal fold induction [2]: 1.37

CC(C(=O)O)c1ccc(N2Cc3ccccc3C2=O)c(-c2cncnc2)c1 (stereo not shown) [ALB-112231]
maximal fold induction [2]: 1.08

CCCc1ccc(N2Cc3ccc(Br)cc3C2=O)cc1 [ALB-115589]
EC50 [1]: 143 nM
maximal fold induction [2]: 1.39

CC(=O)N(C)c1ccc2c(c1)C(=O)N(c1ccc(C(C)C)cc1)C2 [ALB-117047]
EC50 [1]: 269 nM
maximal fold induction [3]: 1.39

CC(C(=O)O)c1ccc(N2Cc3ccccc3C2=O)cc1-c1ccccc1 (stereo not shown) [ALB-112234]
EC50 [1]: 25400 nM
maximal fold induction [2]: 1.26
